Laboratory results from patent publication US11053251B2, “GPR35 modulators” (Prometheus Biosciences, Inc., priority 2019, dated 2021).

Tests used:
[1] = molecular target: Human GPR35 (Homo sapiens, UniProt Q9HC97, S294R); assay: Alternative Beta-Arrestin Assay (JumpIn 294R Tango U2OS cells, LiveBLAzer-FRET B/G); type: cell-based; settings: Human GPR35 expressing JumpIn 294R Tango U2OS cells, 5 hours treatment
How it was run: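 Beta-arrestin recruitment measured as FRET ratio change using CCF4-AM loading for 2 h, following 5-hour compound treatment of GPR35 (S294R) JumpIn Tango U2OS cells. Zaprinast served as positive control; EC50 values from four-parameter dose-response fits.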

[2] = molecular target: Human GPR35 (Homo sapiens, UniProt Q9HC97); assay: Beta-Arrestin Assay (Tango U2OS cells, LiveBLAzer-FRET B/G); type: cell-based; settings: Human GPR35 expressing Tango U2OS cells, 5 hours treatment
Protocol: Human GPR35 expressing Tango U2OS cells were plated in 384-well format in clear bottom plates at a cell density of 10,000 cells/well and allowed to grow overnight. The next day, cells were treated with serially diluted test compounds for 5 hours. LiveBLAzer-FRET B/G (CCF4-AM) detection reagents were then added and cells were allowed to incubate for 2 hours before reading plates on a BioTek Cytation 5 plate reader. Zaprinast was used as a positive control for dose-response curves. In order to determine EC50 values, data were fit to a four-parameter dose-response curve.

Sequence of Human GPR35 (Homo sapiens, UniProt Q9HC97, S294R) (Q9HC97 whole entry S294R): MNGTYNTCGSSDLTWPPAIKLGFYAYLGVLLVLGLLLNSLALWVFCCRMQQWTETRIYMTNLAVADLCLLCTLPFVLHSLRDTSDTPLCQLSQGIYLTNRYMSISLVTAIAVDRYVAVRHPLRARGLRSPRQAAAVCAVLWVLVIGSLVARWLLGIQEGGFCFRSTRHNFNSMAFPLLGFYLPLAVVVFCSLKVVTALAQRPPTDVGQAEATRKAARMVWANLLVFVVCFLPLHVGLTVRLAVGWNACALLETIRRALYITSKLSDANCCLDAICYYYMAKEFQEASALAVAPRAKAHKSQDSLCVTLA
Sequence of Human GPR35 (Homo sapiens, UniProt Q9HC97) (Q9HC97 whole entry): as the sequence (Q9HC97 whole entry S294R) above, with R294S counted along it

SMILES: CCOc1cc(-c2ccc(CC(=O)OC)cc2)ccc1-c1nc2[nH]nnc2c(=O)[nH]1 [Compound 114, Methyl 2-(3′-ethoxy-4′-(7-oxo-6,7-dihydro-3H-[1,2,3]triazolo[4,5-d]pyrimidin-5-yl)-[1,1′-biphenyl]-4-yl)acetate]
- EC50 [1]: ≤ 10 µM
- EC50 [2]: ≤ 10 µM

SMILES: CCOc1cc(Cc2ccccc2C(=O)O)ccc1-c1nc2[nH]nnc2c(=O)[nH]1 [Compound 175, 2-(3-ethoxy-4-(7-oxo-6,7-dihydro-3H-[1,2,3]triazolo[4,5-d]pyrimidin-5-yl)benzyl)benzoic acid]
- EC50 [1]: ≤ 10 µM
- EC50 [2]: ≤ 10 µM

SMILES: CCOc1cc(-c2ccc(C(=O)OC)cc2)ccc1-c1nc2[nH]nnc2c(=O)[nH]1 [Compound 108, Methyl 3′-ethoxy-4′-(7-oxo-6,7-dihydro-3H-[1,2,3]triazolo[4,5-d]pyrimidin-5-yl)-[1,1′-biphenyl]-4-carboxylate]
- EC50 [1]: ≤ 10 µM
- EC50 [2]: ≤ 10 µM

SMILES: CCOc1cc(-c2cccc(C(=O)O)c2)ccc1-c1nc2[nH]nnc2c(=O)[nH]1 [Compound 110, 3′-Ethoxy-4′-(7-oxo-6,7-dihydro-3H-[1,2,3]triazolo[4,5-d]pyrimidin-5-yl)-[1,1′-biphenyl]-3-carboxylic acid]
- EC50 [1]: ≤ 10 µM
- EC50 [2]: ≤ 10 µM

SMILES: CCOc1cc(-c2cc[nH]n2)ccc1-c1nc2nn[nH]c2c(=O)[nH]1 [Compound 131, 5-(2-Ethoxy-4-(1H-pyrazol-3-yl)phenyl)-1,6-dihydro-7H-[1,2,3]triazolo[4,5-d]pyrimidin-7-one]
- EC50 [1]: ≤ 10 µM
- EC50 [2]: ≤ 10 µM

SMILES: CCOc1cc(N2CC[C@@H](C(=O)O)C2)ccc1-c1nc2[nH]nnc2c(=O)[nH]1 [Compound 167, (R)-1-(3-ethoxy-4-(7-oxo-6,7-dihydro-3H-[1,2,3]triazolo[4,5-d]pyrimidin-5-yl)phenyl)pyrrolidine-3-carboxylic acid]
- EC50 [1]: ≤ 10 µM
- EC50 [2]: ≤ 10 µM

SMILES: CCOc1cc(C(=O)N2CCCC(C(=O)O)C2)ccc1-c1nc2[nH]nnc2c(=O)[nH]1 (stereo not shown) [Compound 172, 1-(3-ethoxy-4-(7-oxo-6,7-dihydro-3H-[1,2,3]triazolo[4,5-d]pyrimidin-5-yl)benzoyl)piperidine-3-carboxylic acid]
- EC50 [1]: 10 to 50 µM
- EC50 [2]: ≤ 10 µM

SMILES: CCOc1cc(-c2cccc(O[C@@H](C)C(=O)O)c2)ccc1-c1nc2[nH]nnc2c(=O)[nH]1 (single isomer, unassigned) [Compound 252]
- EC50 [1]: ≤ 10 µM

SMILES: CCOc1cc(-c2cccc([C@@H]3C[C@@H]3C(=O)O)c2)ccc1-c1nc2[nH]nnc2c(=O)[nH]1 (racemic) [Compound 306, rac-cis-2-(3′-ethoxy-4′-(7-oxo-6,7-dihydro-3H-[1,2,3]triazolo[4,5-d]pyrimidin-5-yl)-[1,1′-biphenyl]-3-yl)cyclopropane-1-carboxylic acid]
- EC50 [1]: ≤ 10 µM

SMILES: CCOc1cc(-c2ccc(OC(C)C)c(CC(C)C(=O)O)c2)ccc1-c1nc2[nH]nnc2c(=O)[nH]1 (single isomer, unassigned) [Compound 314, 3-(3′-ethoxy-4-isopropoxy-4′-(7-oxo-6,7-dihydro-3H-[1,2,3]triazolo[4,5-d]pyrimidin-5-yl)-[1,1′-biphenyl]-3-yl)-2-methylpropanoic acid]
- EC50 [1]: ≤ 10 µM

SMILES: CCOc1cc(-c2nc3[nH]nnc3c(=O)[nH]2)ccc1-c1ccc(C(=O)O)cc1 [Compound 195, 2′-Ethoxy-4′-(7-oxo-6,7-dihydro-3H-[1,2,3]triazolo[4,5-d]pyrimidin-5-yl)-[1,1′-biphenyl]-4-carboxylic acid]
- EC50 [1]: ≤ 10 µM

SMILES: O=C(O)c1cc(O)cc(-c2ccc(-c3nc4[nH]nnc4c(=O)[nH]3)c(OC3CCCC3)c2)c1 [Compound 199, 3′-(Cyclopentyloxy)-5-hydroxy-4′-(7-oxo-6,7-dihydro-3H-[1,2,3]triazolo[4,5-d]pyrimidin-5-yl)-[1,1′-biphenyl]-3-carboxylic acid]
- EC50 [1]: ≤ 10 µM

SMILES: CCOc1cc(-c2cccc([C@@H]3C[C@H]3C(=O)O)c2)ccc1-c1nc2[nH]nnc2c(=O)[nH]1 (single isomer, unassigned) [Compound 279, trans-2-(3′-ethoxy-4′-(7-oxo-6,7-dihydro-3H-[1,2,3]triazolo[4,5-d]pyrimidin-5-yl)-[1,1′-biphenyl]-3-yl)cyclopropane-1-carboxylic acid]
- EC50 [1]: ≤ 10 µM

SMILES: CN(C)c1cc(-c2nc3[nH]nnc3c(=O)[nH]2)ccc1-c1ccc(C(=O)O)cc1 [Compound 288, 2′-(dimethylamino)-4′-(7-oxo-6,7-dihydro-3H-[1,2,3]triazolo[4,5-d]pyrimidin-5-yl)-[1,1′-biphenyl]-4-carboxylic acid]
- EC50 [1]: ≤ 10 µM

SMILES: CCOc1cc(-c2cccc(NC)c2)ccc1-c1nc2[nH]nnc2c(=O)[nH]1 [Compound 232, 5-(3-Ethoxy-3′-(methylamino)-[1,1′-biphenyl]-4-yl)-3,6-dihydro-7H-[1,2,3]triazolo[4,5-d]pyrimidin-7-one]
- EC50 [1]: ≤ 10 µM

SMILES: CCOc1cc(-c2cc(F)cc(O[C@@H](C)C(=O)O)c2)ccc1-c1nc2[nH]nnc2c(=O)[nH]1 (single isomer, unassigned) [Compound 263]
- EC50 [1]: ≤ 10 µM

SMILES: CCOc1cc(-c2cccc(CC(C)C(=O)O)c2)ccc1-c1nc2[nH]nnc2c(=O)[nH]1 (single isomer, unassigned) [Compound 312, 3-(3′-ethoxy-4′-(7-oxo-6,7-dihydro-3H-[1,2,3]triazolo[4,5-d]pyrimidin-5-yl)-[1,1′-biphenyl]-3-yl)-2-methylpropanoic acid]
- EC50 [1]: ≤ 10 µM

SMILES: COc1cc(-c2nc3[nH]nnc3c(=O)[nH]2)cc(OC)c1-c1ccc(C(=O)O)cc1 [Compound 196, 2′,6′-Dimethoxy-4′-(7-oxo-6,7-dihydro-3H-[1,2,3]triazolo[4,5-d]pyrimidin-5-yl)-[1,1′-biphenyl]-4-carboxylic acid]
- EC50 [1]: ≤ 10 µM

SMILES: CCOc1cc(-c2cc(F)c(F)c(O[C@H](C)C(=O)O)c2)ccc1-c1nc2[nH]nnc2c(=O)[nH]1 (single isomer, unassigned) [Compound 260]
- EC50 [1]: ≤ 10 µM

SMILES: CCOc1cc(-c2cccc(OC(C)C(=O)O)c2)ccc1-c1nc2[nH]nnc2c(=O)[nH]1 (racemic) [Compound 212, (±)-2-((3′-Ethoxy-4′-(7-oxo-6,7-dihydro-3H-[1,2,3]triazolo[4,5-d]pyrimidin-5-yl)-[1,1′-biphenyl]-3-yl)oxy)propanoic acid]
- EC50 [1]: ≤ 10 µM

SMILES: CCCC(Oc1cccc(-c2ccc(-c3nc4[nH]nnc4c(=O)[nH]3)c(OCC)c2)c1)C(=O)O (stereo not shown) [Compound 248, 2-((3′-ethoxy-4′-(7-oxo-6,7-dihydro-3H-[1,2,3]triazolo[4,5-d]pyrimidin-5-yl)-[1,1′-biphenyl]-3-yl)oxy)pentanoic acid]
- EC50 [1]: ≤ 10 µM

SMILES: CCOc1cc(-c2ccc(C(=O)OCc3oc(=O)oc3C)cc2)ccc1-c1nc2nn[nH]c2c(=O)[nH]1 [Compound 193, (5-Methyl-2-oxo-1,3-dioxol-4-yl)methyl 3′-ethoxy-4′-(7-oxo-6,7-dihydro-3H-[1,2,3]triazolo[4,5-d]pyrimidin-5-yl)-[1,1′-biphenyl]-4-carboxylate]
- EC50 [1]: ≤ 10 µM

SMILES: CCOc1cc(-c2cccc(CC3(C(=O)O)CC3)c2)ccc1-c1nc2[nH]nnc2c(=O)[nH]1 [Compound 244, 1-((3′-ethoxy-4′-(7-oxo-6,7-dihydro-3H-[1,2,3]triazolo[4,5-d]pyrimidin-5-yl)-[1,1′-biphenyl]-3-yl)methyl)cyclopropane-1-carboxylic acid]
- EC50 [1]: ≤ 10 µM

SMILES: CCOc1cc(-c2cccc(C[C@@H](OC)C(=O)O)c2)ccc1-c1nc2[nH]nnc2c(=O)[nH]1 [Compound 285, (R)-3-(3′-ethoxy-4′-(7-oxo-6,7-dihydro-3H-[1,2,3]triazolo[4,5-d]pyrimidin-5-yl)-[1,1′-biphenyl]-3-yl)-2-methoxypropanoic acid]
- EC50 [1]: ≤ 10 µM

SMILES: CN(C)CCCOc1cc(-c2ccc(C(=O)O)cc2)ccc1-c1nc2[nH]nnc2c(=O)[nH]1 [Compound 229, 3′-(3-(Dimethylamino)propoxy)-4′-(7-oxo-6,7-dihydro-3H-[1,2,3]triazolo[4,5-d]pyrimidin-5-yl)-[1,1′-biphenyl]-4-carboxylic acid]
- EC50 [1]: 10 to 50 µM

SMILES: CCOc1cc(-c2ccc(C(=O)O)c(OC)c2)ccc1-c1nc2[nH]nnc2c(=O)[nH]1 [Compound 206, 3′-Ethoxy-3-methoxy-4′-(7-oxo-6,7-dihydro-3H-[1,2,3]triazolo[4,5-d]pyrimidin-5-yl)-[1,1′-biphenyl]-4-carboxylic acid]
- EC50 [1]: ≤ 10 µM

SMILES: CCOc1cc(-c2cc(O)cc(NCC(=O)O)c2)ccc1-c1nc2[nH]nnc2c(=O)[nH]1 [Compound 223, (3′-Ethoxy-5-hydroxy-4′-(7-oxo-6,7-dihydro-3H-[1,2,3]triazolo[4,5-d]pyrimidin-5-yl)-[1,1′-biphenyl]-3-yl)glycine]
- EC50 [1]: ≤ 10 µM

SMILES: CCOc1cc(-c2cc(F)cc(O[C@H](C)C(=O)O)c2)ccc1-c1nc2[nH]nnc2c(=O)[nH]1 (single isomer, unassigned) [Compound 262]
- EC50 [1]: ≤ 10 µM

SMILES: CCOc1cc(-c2ccc(C(=O)O)c(OCC(=O)O)c2)ccc1-c1nc2[nH]nnc2c(=O)[nH]1 [Compound 220, 3-(Carboxymethoxy)-3′-ethoxy-4′-(7-oxo-6,7-dihydro-3H-[1,2,3]triazolo[4,5-d]pyrimidin-5-yl)-[1,1′-biphenyl]-4-carboxylic acid]
- EC50 [1]: ≤ 10 µM

SMILES: O=C(O)CNc1cccc(-c2ccc(-c3nc4[nH]nnc4c(=O)[nH]3)c(OC3CCCC3)c2)c1 [Compound 225, (3′-(Cyclopentyloxy)-4′-(7-oxo-6,7-dihydro-3H-[1,2,3]triazolo[4,5-d]pyrimidin-5-yl)-[1,1′-biphenyl]-3-yl)glycine]
- EC50 [1]: ≤ 10 µM
